Experimental data from publication PMC10778980, “Profiling Novel Quinuclidine-Based Derivatives as Potential Anticholinesterase Drugs: Enzyme Inhibition and Effects on Cell Viability” (International Journal of Molecular Sciences, 2023).
“Also recorded” adds a separate entry of the source. Read-outs that look alike come from different tables or passages of the source.

Tests used:
human AChE = target: T1, human AChE (Homo sapiens, UniProt P22303); experiment: Reversible inhibition of AChE (Ellman's procedure, Hunter–Downs evaluation); format: biochemical; settings: for Ki: Ki ± standard error, 0.1, 0.2, 0.35 and 0.5 mM substrate ATCh, 25 °C, pH 7.4; for Ki (AChE)/Ki (BChE): selectivity ratio
T1 construct: The sources of human AChE and BChE were native erythrocytes and plasma, respectively; from tissue; host or cells: human erythrocytes from venous blood of a healthy volunteer
Description: (§1) Cholinesterase substrate acetylthiocholine (ATCh) and the thiol reagent 5,5′-dithiobis(2-nitrobenzoic acid) (DTNB) for the enzyme activity measurement were purchased from Sigma-Aldrich (St. Louis, MO, USA). The sources of human AChE and BChE were native erythrocytes and plasma, respectively, obtained from the blood of a healthy volunteer and in accordance with the approval of the Ethics Committee of the Institute for Medical Research and Occupational Health (approval number: 100-21/23-6). Erythrocytes and plasma were isolated from the whole blood and prepared according to a previously published procedure. Namely, venous blood was collected into a heparinized tube and centrifuged (at 4 °C, 20 min on 2500 rpm, Eppendorf centrifuge 5702R) to separate plasma from the erythrocytes. Plasma was removed and used as a source of BChE, while erythrocytes were washed twice with the 0.1 M sodium phosphate buffer, pH 7.4, in a volume corresponding to the initial volume of the whole blood. Both plasma and erythrocytes were frozen at −20 °C until use. Quinuclidine compounds were dissolved in dH2O as 10 or 100 mM; exceptionally, 3-hydroxyimino compounds with longer chains (C12−C16) were dissolved in DMSO as 100 mM solutions. Stock solutions were kept at 4 °C until use. Further dilutions were made in distilled water.
(§2) The reversible inhibition experiments followed a previously published procedure. Namely, the enzyme activity was measured in the presence of a wide range of quinuclidine compound concentrations and in the substrate range from 0.1 to 0.5 mM to confirm the type of compound binding. The activity was assayed following the Ellman’s procedure, with the modification in the wavelength used for detection of the TNB anion in the case of AChE activity measurement due to the interference of the hemoglobin, and according to Worek et al.. The assay was performed in 96-well plates on an Infinite M200PRO plate reader (Tecan Austria GmbH, Salzburg, Austria) at 25 °C. Each concentration was tested in triplicate or quadruplicate on each plate. The inhibition mixture contained 0.1 M sodium phosphate buffer, pH 7.4, enzyme (AChE or BChE), quinuclidine compound (0.2–400 μM final), DTNB (0.3 mM final), and ATCh (from 0.1 to 0.5 mM final) to start the reaction. The increase in absorbance was read at 436 nm for AChE and at 412 nm for BChE. The measured activity in the presence of compounds was corrected for the non-enzymatic hydrolysis of substrate ATCh, if detected. The reversible enzyme–quinuclidine complex dissociation constants (the inhibition constants) Ki were evaluated from the effect of the substrate concentration on the degree of inhibition according to the Hunter–Downs equation as described previously, taking into account only quinuclidine concentrations where 20–80% inhibition of the activity was observed.

human BChE = target: T2, human BChE (Homo sapiens, UniProt P06276); experiment: biochemical
T2 construct: Plasma was removed and used as a source of BChE; from tissue; host or cells: human blood plasma from a healthy volunteer
Description: as §1, §2

SH-SY5Y cells [1] = experiment: Cytotoxicity assay (MTS) on SH-SY5Y; format: cell-based; settings: Homo sapiens
Protocol: (§3) SH-SY5Y cells were grown in DMEM F12 (Sigma-Aldrich, St. Louis, MO, USA) supplemented with 15% (v/v) fetal bovine serum (FBS), 2 mM glutamine, and 1% (v/v) non-essential amino acids (NEAA). HepG2 cells were grown in EMEM supplemented with 10% (v/v) FBS, 2 mM glutamine, and 1% (v/v) non-essential amino acids NEAA. All media and supplements were purchased from Sigma-Aldrich, Steinheim, Germany.
(§4) The procedure followed a previously described protocol.

HepG2 cells [2] = experiment: Cytotoxicity assay (MTS) on HepG2; format: cell-based; settings: Homo sapiens
Protocol: as §3, §4

SH-SY5Y cells [3] = experiment: Cell membrane integrity (LDH release) on SH-SY5Y; format: cell-based, human; settings: 4 h exposure, 12.5–200 µM
Protocol: (§5) Human neuroblastoma SH-SY5Y (ECACC 94030304) and human hepatocyte carcinoma HepG2 (ECACC 85011430) were used to evaluate in vitro dose- and time-dependent different cell effects. The SH-SY5Y cell line was selected as it represents a well-established model for studying neuronal cells, while HepG2 hepatocytes represent a liver model as a major organ participating in the metabolism of diverse compounds [31, 61, 62]. SH-SY5Y cells were grown in DMEM F12 (Sigma-Aldrich, St. Louis, MO, USA) supplemented with 15% (v/v) fetal bovine serum (FBS), 2 mM glutamine, and 1% (v/v) non-essential amino acids (NEAA). HepG2 cells were grown in EMEM supplemented with 10% (v/v) FBS, 2 mM glutamine, and 1% (v/v) non-essential amino acids NEAA. All media and supplements were purchased from Sigma-Aldrich, Steinheim, Germany.
(§6) Cell membrane integrity was determined after 4 h exposure to derivatives 3–5 and 10–12 by measuring the release of the intracellular lactate dehydrogenase (LDH), and the procedure followed a previously described protocol using The CytoTox-ONE™ Homogeneous Membrane Integrity Assay (Promega, Madison, WI, USA). Triton X-100 at a final concentration of 0.18% (v/v) (stock of 9% in water; Sigma-Aldrich, Steinheim, Germany) was used as a positive control to determine the maximal LDH release. Data were taken from at least two independent experiments (each treatment performed in duplicate) and plotted as a percentage of LDH release compared to the determined maximal LDH release, according to the manufacturer’s calculation protocol.

HepG2 cells [4] = experiment: Cell membrane integrity (LDH release) on HepG2; format: cell-based, human; settings: HepG2, 4 h exposure, 12.5–200 µM
Protocol: as §5, §6

SH-SY5Y cells [5] = experiment: Mitochondrial membrane potential (TMRE assay) on SH-SY5Y; format: cell-based, human; settings: 4 h exposure, LOAEL concentrations
Protocol: as §5
(§7) Mitochondrial membrane potential (ΔΨm) was determined using a cell-permeable, potential-sensitive cationic dye, tetramethylrhodamine ethyl ester perchlorate (TMRE, Cell Signaling Technology Europe, Leiden, The Netherlands). Cells were exposed for 4 h to derivatives 3–5 and 10–12. The procedure followed a previously described protocol. A concentration of 50 µM carbonyl cyanide 3-chlorophenylhydrazone (CCCP, Cell Signaling Technology Europe, Leiden, The Netherlands) was used as a positive control. Data were evaluated from at least three independent experiments (performed in duplicate) and presented as a normalized signal to the untreated control, according to the manufacturer’s calculation protocol.

HepG2 cells [6] = experiment: Mitochondrial membrane potential (TMRE assay) on HepG2; format: cell-based, human; settings: HepG2, 4 h exposure, LOAEL concentrations
Protocol: as §5, §7

[7] = Ki ± standard error, 0.1, 0.2, 0.35 and 0.5 mM substrate ATCh, 25 °C, pH 7.4, read-out: Ki BChE
[8] = 4 h exposure, read-out: IC50 ± SE SH-SY5Y 4 h
[9] = 24 h exposure, read-out: IC50 ± SE SH-SY5Y 24 h
[10] = read-out: IC50 ± SE SH-SY5Y 1 h, 1 h exposure
[11] = HepG2, read-out: IC50 ± SE HepG2 1 h, 1 h exposure
[12] = HepG2, 4 h exposure, read-out: IC50 ± SE HepG2 4 h
[13] = HepG2, 24 h exposure, read-out: IC50 ± SE HepG2 24 h

T2 sequence (P06276 29-602): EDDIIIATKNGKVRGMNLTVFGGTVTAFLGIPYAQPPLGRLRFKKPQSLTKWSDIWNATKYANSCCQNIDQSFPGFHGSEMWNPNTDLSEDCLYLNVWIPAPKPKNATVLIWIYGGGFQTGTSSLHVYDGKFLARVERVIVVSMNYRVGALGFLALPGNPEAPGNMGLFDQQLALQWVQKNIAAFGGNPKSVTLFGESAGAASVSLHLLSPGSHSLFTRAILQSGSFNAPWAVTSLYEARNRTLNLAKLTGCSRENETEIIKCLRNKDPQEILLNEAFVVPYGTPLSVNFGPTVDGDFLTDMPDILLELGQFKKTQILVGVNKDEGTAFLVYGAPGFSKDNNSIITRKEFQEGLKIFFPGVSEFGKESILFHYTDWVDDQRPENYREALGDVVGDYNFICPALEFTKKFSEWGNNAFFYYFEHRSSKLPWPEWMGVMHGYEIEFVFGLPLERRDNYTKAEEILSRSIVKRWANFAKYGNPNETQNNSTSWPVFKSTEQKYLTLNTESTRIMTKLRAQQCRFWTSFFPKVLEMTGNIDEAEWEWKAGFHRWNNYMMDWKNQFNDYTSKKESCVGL
T1 sequence (P22303 32-617 isoform P22303-2 limits assumed): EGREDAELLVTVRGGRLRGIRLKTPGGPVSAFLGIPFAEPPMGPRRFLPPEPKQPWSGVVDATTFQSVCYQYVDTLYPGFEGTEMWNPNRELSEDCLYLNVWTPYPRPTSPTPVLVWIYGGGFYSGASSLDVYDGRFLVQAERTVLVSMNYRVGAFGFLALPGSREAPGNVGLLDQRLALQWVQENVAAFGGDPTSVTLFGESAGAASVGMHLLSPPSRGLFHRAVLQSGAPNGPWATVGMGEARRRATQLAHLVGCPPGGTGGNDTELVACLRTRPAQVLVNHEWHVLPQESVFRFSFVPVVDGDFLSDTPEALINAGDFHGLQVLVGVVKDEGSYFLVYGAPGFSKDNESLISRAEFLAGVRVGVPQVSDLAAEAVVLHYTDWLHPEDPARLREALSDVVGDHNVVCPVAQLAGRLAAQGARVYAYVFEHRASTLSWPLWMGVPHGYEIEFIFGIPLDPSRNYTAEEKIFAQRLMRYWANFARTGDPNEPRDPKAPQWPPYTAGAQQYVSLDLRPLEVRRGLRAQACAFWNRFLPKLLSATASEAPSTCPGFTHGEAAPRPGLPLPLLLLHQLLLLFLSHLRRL

Row | Compound | Ki (human AChE) | Ki (AChE)/Ki (BChE) (human AChE) | Ki (human BChE; [7]) | IC50 (SH-SY5Y cells [1]; [8]) | IC50 (SH-SY5Y cells [1]; [9]) | IC50 (SH-SY5Y cells [1]; [10]) | IC50 (HepG2 cells [2]; [11]) | IC50 (HepG2 cells [2]; [12]) | IC50 (HepG2 cells [2]; [13]) | LDH release (SH-SY5Y cells [3]) | LDH release (HepG2 cells [4]) | Mitochondrial membrane potential (ΔΨm) (SH-SY5Y cells [5]) | Mitochondrial membrane potential (ΔΨm) (HepG2 cells [6]) | times less efficient than donepezil (human AChE; AChE Ki compared to donepezil) | Ki (human BChE)
1 | ON=C1C[N+]2(CCCCCCCC[N+]34CCC(CC3)C(=NO)C4)CCC1CC2 [Compound 13, 1,1’-(octano)bis(3-hydroxyiminoquinuclidinium bromide)] | 1.8 ± 0.07 µM | 0.5 | 3.4 ± 0.2 µM | ≥ 800 µM | ≥ 800 µM | ≥ 800 µM | ≥ 800 µM | ≥ 800 µM | ≥ 800 µM | – | – | – | – | – | –
2 | CCCCCCCCCCCCCC[N+]12CCC(CC1)C(O)C2 (stereo not shown) [Compound 4] | 4.2 ± 0.5 µM | 0.5 | 7.9 ± 0.7 µM | 9 ± 1 µM | 7 ± 1 µM | 16 ± 1 µM | 35 ± 1 µM | 32 ± 1 µM | 43 ± 1 µM | significant LDH release | strongest effect; also recorded: significant LDH release | decrease in the mitochondrial membrane potential | decrease in the mitochondrial membrane potential | – | –
3 | OC1C[N+]2(CCCCCCCCCC[N+]34CCC(CC3)C(O)C4)CCC1CC2 (stereo not shown) [Compound 7, 1,1’-(decano)bis(3-hydroxyquinuclidinium bromide)] | 0.52 ± 0.05 µM | 0.3 | 1.6 ± 0.2 µM | ≥ 800 µM | ≥ 800 µM | ≥ 800 µM | ≥ 800 µM | ≥ 800 µM | ≥ 800 µM | – | – | – | – | – | –
4 | OC1C[N+]2(CCCCCCCC[N+]34CCC(CC3)C(O)C4)CCC1CC2 (stereo not shown) [Compound 6, 1,1′-(octano)bis(3-hydroxyquinuclidinium bromide)] | 24 ± 1.1 µM | 1.9 | 12.9 ± 1 µM | ≥ 800 µM | ≥ 800 µM | ≥ 800 µM | ≥ 800 µM | ≥ 800 µM | ≥ 800 µM | – | – | – | – | – | –
5 | ON=C1C[N+]2(CCCCCCCCCC[N+]34CCC(CC3)C(=NO)C4)CCC1CC2 [Compound 14, 1,1’-(decano)bis(3-hydroxyiminoquinuclidinium bromide)] | 0.26 ± 0.02 µM | 0.2 | 1.2 ± 0.06 µM | ≥ 800 µM | ≥ 800 µM | ≥ 800 µM | ≥ 800 µM | ≥ 800 µM | ≥ 800 µM | – | – | – | – | around 60 | –
6 | CCCCCCCCCC[N+]12CCC(CC1)C(O)C2 (stereo not shown) [Compound 2] | 63.8 ± 5.1 µM | 5.4 | 11.8 ± 1.1 µM | ≥ 800 µM | ≥ 800 µM | ≥ 800 µM | ≥ 800 µM | ≥ 800 µM | ≥ 537 µM | – | – | – | – | – | –
7 | CCCCCCCCCCCCCCCC[N+]12CCC(CC1)C(O)C2 (stereo not shown) [Compound 5] | 9 ± 1.3 µM | 0.3 | 26.1 ± 2.4 µM | 8 ± 1 µM | 7 ± 1 µM | 11 ± 1 µM | 46 ± 1 µM | 26 ± 1 µM | 28 ± 1 µM | significant LDH release | strongest effect; also recorded: significant LDH release | decrease in the mitochondrial membrane potential | strongest effect; also recorded: decrease in the mitochondrial membrane potential | – | –
8 | CCCCCCCCCCCC[N+]12CCC(CC1)C(O)C2 (stereo not shown) [Compound 3] | 13.2 ± 0.6 µM | 1.5 | 9 ± 0.8 µM | 74 ± 1 µM | 56 ± 1 µM | 145 ± 1 µM | 135 ± 1 µM | 81 ± 1 µM | 66 ± 1 µM | significant LDH release | strongest effect; also recorded: significant LDH release | decrease in the mitochondrial membrane potential | decrease in the mitochondrial membrane potential | – | –
9 | CCCCCCCCCC[N+]12CCC(CC1)C(=NO)C2.[Br-] [Compound 9, 1-decyl-3-hydroxyiminoquinuclidinium bromide] | 23.8 ± 0.8 µM | 4.6 | – | ≥ 800 µM | ≥ 800 µM | ≥ 800 µM | ≥ 800 µM | ≥ 800 µM | ≥ 800 µM | – | – | – | – | – | 5.2 ± 1.1 µM
10 | CCCCCCCC[N+]12CCC(CC1)C(=NO)C2.[Br-] [Compound 8, 1-octyl-3-hydroxyiminoquinuclidinium bromide] | 82.7 ± 3.5 µM | 2.2 | – | ≥ 800 µM | ≥ 800 µM | ≥ 800 µM | ≥ 800 µM | ≥ 800 µM | ≥ 800 µM | – | – | – | – | – | 37.9 ± 10.4 µM
11 | CCCCCCCC[N+]12CCC(CC1)C(O)C2 (stereo not shown) [Compound 1] | 156 ± 26.1 µM | 1.8 | 85.1 ± 22.1 µM | ≥ 800 µM | ≥ 800 µM | ≥ 800 µM | ≥ 800 µM | ≥ 800 µM | ≥ 800 µM | – | – | – | – | – | –
